Assay results as given in ChEMBL document CHEMBL1201862, “PubChem BioAssay data set” (2004).
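Cultured in 96-well plates, cells were exposed to test compound for 48 hours across five concentrations. Abbreviation: GI50, concentration required for 50% inhibition of growth.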 Activity calls are given as the source filed them. Rule as the data show it: active = GI50 up to about 1.1 µM and inactive = higher.

Key:
Assay in all cases: DTP human tumour cell line panel, 48 h
A498 = system: A498
HCT-116 = system: HCT-116
HCT-15 = system: HCT-15
HOP-62 = system: HOP-62
HOP-92 = system: HOP-92
LOX IMVI = system: LOX IMVI
MOLT-4 = system: MOLT-4
NCI-H23 = system: NCI-H23
NCI-H460 = system: NCI-H460
RPMI-8226 = system: RPMI-8226
SF-539 = system: SF-539
SNB-19 = system: SNB-19
SNB-75 = system: SNB-75
SW-620 = system: SW-620
TK-10 = system: TK-10
CAKI-1 = system: CAKI-1
NCI-H226 = system: NCI-H226

| SMILES | GI50 (A498) | GI50 (HCT-116) | GI50 (HCT-15) [µM] | GI50 (HOP-62) | GI50 (HOP-92) | GI50 (LOX IMVI) | GI50 (MOLT-4) | GI50 (NCI-H23) | GI50 (NCI-H460) | GI50 (RPMI-8226) | GI50 (SF-539) | GI50 (SNB-19) | GI50 (SNB-75) | GI50 (SW-620) | GI50 (TK-10) | GI50 (CAKI-1) | GI50 (NCI-H226) |
| --- | --- | --- | --- | --- | --- | --- | --- | --- | --- | --- | --- | --- | --- | --- | --- | --- | --- |
| C/C(=N\N=C(\N)S)c1ccc(Oc2ccccc2)cc1 | 13.7 µM (inactive) | 10.2 µM (inactive) | 3.99 | 20.5 µM (inactive) | 3.65 µM (inactive) | 13.5 µM (inactive) | 0.971 µM (active) | 11.8 µM (inactive) | 17.3 µM (inactive) | 1.78 µM (inactive) | 5.38 µM (inactive) | 16 µM (inactive) | 7.38 µM (inactive) | 16.3 µM (inactive) | 4.09 µM (inactive) | – | – |
| O=c1ncc(F)cn1C1OC(CO)C(O)C1O (stereo not given) | > 44.2 µM (inactive) | 24.4 µM (inactive) | > 100 | > 30.7 µM (inactive) | 23.8 µM (inactive) | 16.7 µM (inactive) | > 20.7 µM (inactive) | > 100 µM (inactive) | 23.6 µM (inactive) | 15.1 µM (inactive) | > 34.9 µM (inactive) | > 18.3 µM (inactive) | 6.24 µM (inactive) | > 31.4 µM (inactive) | > 69.2 µM (inactive) | 15.5 µM (inactive) | > 19.1 µM (inactive) |
| Cc1ccc2nc(NC(=O)C(=O)CC(=O)c3cccc4ccccc34)sc2c1 | 63.5 µM (inactive) | – | 59.2 | 22.2 µM (inactive) | 14.8 µM (inactive) | 32.2 µM (inactive) | 42.1 µM (inactive) | 50.8 µM (inactive) | 52 µM (inactive) | 91.8 µM (inactive) | 24.7 µM (inactive) | 39.7 µM (inactive) | 16.9 µM (inactive) | 38.9 µM (inactive) | 24.1 µM (inactive) | 22.2 µM (inactive) | 19.8 µM (inactive) |
| O=C1CCC(=O)C12CCc1cccc(O)c12 | – | – | > 100 | > 100 µM (inactive) | > 100 µM (inactive) | > 100 µM (inactive) | – | > 100 µM (inactive) | > 100 µM (inactive) | > 100 µM (inactive) | – | – | 39 µM (inactive) | > 100 µM (inactive) | > 100 µM (inactive) | > 100 µM (inactive) | – |
| CCCOC(=O)C1CCC(=O)N1C(=O)C(C)Cl (stereo not given) | > 100 µM (inactive) | > 100 µM (inactive) | > 100 | > 100 µM (inactive) | > 100 µM (inactive) | > 100 µM (inactive) | > 100 µM (inactive) | > 100 µM (inactive) | > 100 µM (inactive) | > 100 µM (inactive) | – | > 100 µM (inactive) | > 100 µM (inactive) | > 100 µM (inactive) | > 100 µM (inactive) | > 100 µM (inactive) | > 100 µM (inactive) |
| O=C(O)CNCc1c2ccccc2[n+]([O-])c2ccccc12 | > 100 µM (inactive) | 20.2 µM (inactive) | 30.8 | > 100 µM (inactive) | 16.9 µM (inactive) | 36.6 µM (inactive) | 31 µM (inactive) | 69.3 µM (inactive) | 72.4 µM (inactive) | 30.8 µM (inactive) | – | > 100 µM (inactive) | 34.5 µM (inactive) | 47 µM (inactive) | > 100 µM (inactive) | > 100 µM (inactive) | > 100 µM (inactive) |
| CC1CN1P1(N2CC2C)=NP(N2CC2C)(N2CC2C)=NP(N2CC2C)(N2CC2C)=N1 (stereo not given) | > 50 µM (inactive) | > 50 µM (inactive) | > 50 | – | > 50 µM (inactive) | – | > 50 µM (inactive) | > 50 µM (inactive) | > 50 µM (inactive) | > 50 µM (inactive) | > 50 µM (inactive) | > 50 µM (inactive) | > 50 µM (inactive) | > 50 µM (inactive) | > 50 µM (inactive) | > 50 µM (inactive) | > 50 µM (inactive) |
| COc1ccc(OC)c(NC(=O)C2=C(C)NC(C)=C(C(=O)Nc3cc(OC)ccc3OC)C2c2ccco2)c1 | > 100 µM (inactive) | > 100 µM (inactive) | > 100 | > 100 µM (inactive) | > 100 µM (inactive) | – | 27.7 µM (inactive) | > 100 µM (inactive) | > 100 µM (inactive) | 63 µM (inactive) | > 100 µM (inactive) | > 100 µM (inactive) | > 100 µM (inactive) | > 100 µM (inactive) | > 100 µM (inactive) | 89.5 µM (inactive) | > 100 µM (inactive) |
| CC12OC(=O)C(C#N)C1(C)C1C(=O)CCCC12 (stereo not given) | – | > 100 µM (inactive) | > 100 | – | – | > 100 µM (inactive) | > 100 µM (inactive) | > 100 µM (inactive) | > 100 µM (inactive) | > 100 µM (inactive) | > 100 µM (inactive) | > 100 µM (inactive) | > 100 µM (inactive) | > 100 µM (inactive) | > 100 µM (inactive) | – | > 100 µM (inactive) |
| COc1ccc(OC)c(/C=C2\CCc3ccccc3C2=O)c1 | 2.61 µM (inactive) | 6.78 µM (inactive) | 3.91 | 2.47 µM (inactive) | 1.23 µM (inactive) | 4.26 µM (inactive) | 2.59 µM (inactive) | 3.39 µM (inactive) | 3.44 µM (inactive) | 3.6 µM (inactive) | 2.6 µM (inactive) | 5.6 µM (inactive) | 1.1 µM (active) | 1.12 µM (active) | 5.16 µM (inactive) | 4.65 µM (inactive) | 3.72 µM (inactive) |
| C/C=C(\C)C(=O)N1c2ccccc2CC1c1c(C)[nH]c2ccccc12 (stereo not given) | > 100 µM (inactive) | 86.9 µM (inactive) | 37 | > 100 µM (inactive) | 12.2 µM (inactive) | > 100 µM (inactive) | 19.9 µM (inactive) | 55.2 µM (inactive) | 37.9 µM (inactive) | 25.3 µM (inactive) | 50.8 µM (inactive) | > 100 µM (inactive) | 35 µM (inactive) | > 100 µM (inactive) | 73.3 µM (inactive) | 48.8 µM (inactive) | > 100 µM (inactive) |
| CCOC(=O)c1c[nH]c2c(ccc3ncccc32)c1=O | > 100 µM (inactive) | > 100 µM (inactive) | > 100 | > 100 µM (inactive) | – | > 100 µM (inactive) | > 100 µM (inactive) | > 100 µM (inactive) | > 100 µM (inactive) | – | > 100 µM (inactive) | > 100 µM (inactive) | > 100 µM (inactive) | > 100 µM (inactive) | > 100 µM (inactive) | – | – |
| N/C(=C\c1ccc(OCc2ccccc2)c(OCc2ccccc2)c1[N+](=O)[O-])C(=O)O | > 100 µM (inactive) | > 100 µM (inactive) | – | > 100 µM (inactive) | > 100 µM (inactive) | > 100 µM (inactive) | > 100 µM (inactive) | > 100 µM (inactive) | – | > 100 µM (inactive) | > 100 µM (inactive) | > 100 µM (inactive) | > 100 µM (inactive) | > 100 µM (inactive) | > 100 µM (inactive) | – | > 100 µM (inactive) |
| COc1ccc(/C(Cl)=C/c2cc(OC)ccc2OC)cc1 | 92.9 µM (inactive) | 48.8 µM (inactive) | 53.2 | > 100 µM (inactive) | 40.8 µM (inactive) | – | 49.9 µM (inactive) | 53 µM (inactive) | – | 34.2 µM (inactive) | 64.7 µM (inactive) | > 100 µM (inactive) | 40.1 µM (inactive) | 48.1 µM (inactive) | – | – | 44.7 µM (inactive) |
| CCN(CC)c1ccc(C2N3CCCCC3[C@@H]3c4[nH]c5ccccc5c4CCN23)cc1 (stereo not given in full) | 14.5 µM (inactive) | 16.1 µM (inactive) | 34.8 | > 100 µM (inactive) | 38.1 µM (inactive) | – | 25.5 µM (inactive) | 34.9 µM (inactive) | 22.3 µM (inactive) | 12.8 µM (inactive) | 18.3 µM (inactive) | 32.5 µM (inactive) | 6.11 µM (inactive) | 33.5 µM (inactive) | 27.2 µM (inactive) | 74.3 µM (inactive) | – |
| CCCCN(CCCC)CC(C(=O)Nc1ccc([N+](=O)[O-])cc1[N+](=O)[O-])/C(C)=N\NC(=S)NN (stereo not given) | > 100 µM (inactive) | > 100 µM (inactive) | – | > 100 µM (inactive) | 42.1 µM (inactive) | > 100 µM (inactive) | 70 µM (inactive) | > 100 µM (inactive) | > 100 µM (inactive) | 50.1 µM (inactive) | > 100 µM (inactive) | – | > 100 µM (inactive) | > 100 µM (inactive) | > 100 µM (inactive) | – | > 100 µM (inactive) |
| COc1cc(C2c3cc4c(cc3[C@@H](NCCN3CCCCC3)C3COC(=O)[C@H]23)OCO4)cc(OC)c1O (stereo not given in full) | 0.165 µM (active) | 1.15 µM (inactive) | 0.313 | 0.064 µM (active) | 0.142 µM (active) | 0.237 µM (active) | 0.0164 µM (active) | 0.206 µM (active) | – | 0.277 µM (active) | 0.134 µM (active) | 0.354 µM (active) | – | 1.04 µM (active) | 1.65 µM (inactive) | 0.0918 µM (active) | 0.0387 µM (active) |
| COC(=O)CC(C(C(=O)OC)C(=O)OC)N1C(=O)OC(c2ccccc2)C1c1ccccc1 (stereo not given) | > 100 µM (inactive) | 95.9 µM (inactive) | 53.6 | > 100 µM (inactive) | > 100 µM (inactive) | 38.9 µM (inactive) | > 100 µM (inactive) | > 100 µM (inactive) | 94.2 µM (inactive) | 45.6 µM (inactive) | > 100 µM (inactive) | > 100 µM (inactive) | > 100 µM (inactive) | 26.1 µM (inactive) | > 100 µM (inactive) | 19.3 µM (inactive) | > 100 µM (inactive) |
| Cc1c(O)c(=O)ccn1CCN | > 100 µM (inactive) | > 100 µM (inactive) | > 100 | – | > 100 µM (inactive) | > 100 µM (inactive) | > 100 µM (inactive) | > 100 µM (inactive) | > 100 µM (inactive) | > 100 µM (inactive) | – | > 100 µM (inactive) | > 100 µM (inactive) | > 100 µM (inactive) | > 100 µM (inactive) | > 100 µM (inactive) | > 100 µM (inactive) |
